Results taken from patent US5112804A, “Pharmaceutical composition and method of intranasal administration” (Temple University of the Commonwealth System of Higher …, priority 1989, dated 1992).

System: blood glucose level
Experiment: Insulin absorption animal study, continuous blood glucose monitoring after nasal administration
Assay type: in vivo, dog
Conditions: dogs
Excerpt: The hypoglycemic effect of the above preparations was confirmed in animal glucose monitoring studies utilizing continuous glucose monitoring with the device described in J. Clin. Endocrinol. Metab. 53: 1145 (1984). The device consists of a system for nonthrombogenic blood withdrawal coupled to a system for blood glucose measurement. The blood withdrawal system includes a disposable sterile intravenous needle and catheter connected to a peristaltic pump. The inside wall of the catheter is coated with tridodecyclmethylammonium chloride complexed with heparin to provide a nonthrombogenic surface. Blood is continuously withdrawn at a rate of 12 ml/hr from the experimental animal via the nonthrombogenic catheter. The blood is diluted in a Plexiglass mixing chamber with six volumes of phosphate buffer solution (0.015 M; pH 7.4) containing 10 IU/ml heparin and then moved into the device's sensory chamber. […]
Six preconditioned female mongrel hound dogs treated for worms, weighing 19-20 kg, were fasted overnight and anesthetized in the morning with intravenous "NEMBUTAL" sodium pentobarbital (250 mg initial dose, 25 mg every 30 minutes for maintenance). […] Blood glucose level was continuously monitored. The resulting decrease in blood glucose level for the insulin dosages in Table 1 are recorded in FIGS. 1 to 12.

CC1(C)[C@@H](O)CC[C@]2(C)[C@H]3C(=O)C=C4[C@@H]5C[C@@](C)(C(=O)O)CC[C@]5(C)CC[C@@]4(C)[C@]3(C)CC[C@@H]12 [glycyrrhetinic acid]
enhancing absorption of insulin across the nasal membrane: effective
